Columns and labels:
Format in all cases: in vivo
[1] = tested on: Male ddY mice; assay: Experiment 3: therapeutic effects on pain derived from an emotional component (conditioned pain, saline injection at day 4); details: for therapeutic effects on pain derived from an emotional component: experiments using a similar method, dose not given; for therapeutic effect on pain derived from an emotional component: foot licking of uninjected foot and biting for 5 minutes, FIG. 3
[2] = tested on: Male ddY mice; assay: Experiment 1: therapeutic effects on pain, foot licking and biting after formalin administration
[3] = tested on: Male ddY mice; assay: Experiment 4: effect on amount of activity (supermex); details: measured for 5 minutes after 30 minutes, FIG. 4
Source text: The following Experiments 1 to 5 have been carried out according to the method described in literatures (M Nakamura-Kitamura et al. Brain Research 1406 (2011), 8-17; and M Nakamura-Kitamura et al. Pain Research 27 (2012), 153-164) with minor modifications.
Male ddY mice of 5 weeks old (Japan SLC) were used in the experiments. Regarding the environment context as external senses and sensory stimuli such as tactile sense, visual sense, and feeling, a black cylindrical polypropylene box (diameter: 9.5 cm, height: 7 cm, with a round petri dish having a diameter of 8.5 cm at the bottom) and a translucent polypropylene box (14 cm (length)×9.5 cm (width)×5 cm (height), with a reticular plate at the floor) were used.
In order to study the effect of Compound A on the amount of activity, Compound A (5 mg/kg or 10 mg/kg) or vehicle (i.e., saline comprising 5% DMSO) was intraperitoneally administered to each mouse, and after 30 minutes, the amount of activity of the mouse was measured for 5 minutes using supermex (Muromachi Kikai Co., Ltd.). In the experiment, the vehicle administration group consisted of 7 mice, the Compound A (5 mg/kg) administration group consisted of 7 mice, and the Compound A (10 mg/kg) administration group consisted of 6 mice.

[4] = tested on: Male ddY mice; assay: Experiment 5: therapeutic effects on acute pain, formalin test phase 1 and phase 2; details: 1, 5, 10 mg/kg i.p. 30 minutes before formalin

Cl.Cn1cc(C(=O)C(=O)N[C@H]2CN3CCC2CC3)c2ccccc21 [G, (R)—N-(1-azabicyclo[2.2.2]oct-3-yl)-2-(1-methyl-1H-indol-3-yl)-2-(1-methyl-1H-indol-3-yl)-2-oxoacetamide hydrochloride]
therapeutic effects on pain derived from an emotional component [1]: showed therapeutic effects

NC1CCN(c2cccc(Cl)n2)CC1 [Compound A, 1-(6-chloropyridin-2-yl)piperidin-4-amine]
foot licking and biting caused by formalin ([2]; 5 mg/kg intraperitoneally 30 minutes before formalin (0.67%, 20 μL), measured for 5 minutes, FIG. 1): significantly suppress | therapeutic effect on pain compared to existing drugs ([2]; mouse, in vivo): more excellent therapeutic effect on pain as compared to the existing drugs | therapeutic effect on pain derived from an emotional component ([1]; 5 mg/kg intraperitoneally 30 minutes before saline at day 4): very strong therapeutic effect | therapeutic effect on pain derived from an emotional component ([1]; 10 mg/kg intraperitoneally 30 minutes before saline at day 4): very strong therapeutic effect | therapeutic effect on pain derived from an emotional component compared to each existing drug ([1]; mouse, in vivo): significantly excellent therapeutic effect as compared to each existing drug | effect on the amount of activity ([3]; 5 mg/kg intraperitoneal): no effect | effect on the amount of activity ([3]; 10 mg/kg intraperitoneal): no effect | foot licking and biting caused by formalin, phase 1 ([4]; 0 to 5 minutes after formalin, FIG. 5): dose-dependently and significantly suppress | foot licking and biting caused by formalin, phase 2 ([4]; 5 to 30 minutes after formalin, FIG. 6): dose-dependently and significantly suppress

Cl.N=C(N)NC(=N)Nc1cccc(Cl)c1 [Compound B, m-chlorophenylbiguanide hydrochloride]
therapeutic effects on pain derived from an emotional component [1]: showed therapeutic effects

Cc1[nH]c2ccc(O)cc2c1CCN.Cl [Compound F, 2-methyl-5-hydroxytryptamine hydrochloride]
therapeutic effects on pain derived from an emotional component [1]: showed therapeutic effects

Cl.N=C(N)NC(=N)Nc1ccccc1 [Compound C, 1-phenylbiguanide hydrochloride]
therapeutic effects on pain derived from an emotional component [1]: showed therapeutic effects

— US11446290B2, “Treatment of pain with serotonin-3 receptor agonist” (priority 2017, dated 2022)
